Experimental data: US20240101569A1, “SALT CRYSTALS” (INTRA-CELLULAR THERAPIES, INC., priority 2021, published 2024)

Tests used:
[1] = Solubility study of free base crystalline and succinate salt crystalline forms (pH titration, chase equilibrium); assay type: physicochemical; conditions: water, thermodynamic from solid, aqueous, titration with UV-turbidity probe
Text: The solubilities of free base crystalline and succinate salt crystalline forms of 2-(4-acetylbenzyl)-3-((4-fluorophenyl)amino)-5,7,7-trimethyl-7,8-dihydro-2H-imidazo[1,2-a]pyrazolo[4,3-e]pyrimidin-4(5H)-one are compared. Samples are titrated in water or in a minimum of three titrations under co-solvent conditions from the pH where the sample is fully dissolved. The sample precipitates from solution are detected by a UV-turbidity probe, which corresponds to a kinetic solubility. After precipitation, base and acid titrants are alternately added to drive the sample back and forth across the equilibrium solubility of the neutral species (the intrinsic solubility). At this point, the samples would exist in a supersaturated or subsaturated state (i.e. chase equilibrium). The intrinsic solubilities are determined from the pH between the supersaturated and subsaturated states corresponding to an intrinsic solubility. The samples can be determined by extrapolation to aqueous media, when co-solvent conditions are used.
This degree of aqueous solubility predicts faster dissolution rates in vitro and in vivo.

[2] = system: phosphodiesterase 1 (PDE 1); conditions: statement, no values; cited from earlier work
[3] = Pharmacokinetics study of succinate salt crystals in dogs; assay type: in vivo; conditions: 5 mg/kg orally, plasma; for DN AUC0-24 / DN Cmax: dose-normalised; for Cmax / Tmax / half-life / AUC(0-t): dog, po; for AUC(0-t): read-out: AUC0-24
Experimental: The succinate salt of 2-(4-acetylbenzyl)-3-((4-fluorophenyl)amino)-5,7,7-trimethyl-7,8-dihydro-2H-imidazo[1,2-a]pyrazolo[4,3-e]pyrimidin-4(5H)-one is administered to dogs at a dose of 5 mg/kg orally. A separate group of dogs is administered 2-(4-acetylbenzyl)-3-((4-fluorophenyl)amino)-5,7,7-trimethyl-7,8-dihydro-2H-imidazo[1,2-a]pyrazolo[4,3-e]pyrimidin-4(5H)-one free base 5 mg/kg orally. The analysis of drug concentration in plasma samples collected is analyzed.
The pharmacokinetic (PK) parameters are determined from the plasma concentration versus time data by non-compartmental methods with uniform weighting. The maximum observed concentration (Cmax) and the time of the maximum observed concentration (Tmax) are obtained from the bioanalytical raw data. The area-under-the-plasma concentration-time curve from time zero to the time of the last measurable sample (AUC) is calculated by the trapezoidal rule.

[4] = Solid-state properties of succinate salt crystals (stated in words); assay type: physicochemical

For CC(=O)c1ccc(Cn2nc3c(c2Nc2ccc(F)cc2)C(=O)N(C)C2=NC(C)(C)CN23)cc1 [Free Base, 2-(4-acetylbenzyl)-3-((4-fluorophenyl)amino)-5,7,7-trimethyl-7,8-dihydro-2H-imidazo[1,2-a]pyrazolo[4,3-e]pyrimidin-4(5H)-one], the solubility [1] is given as 285 µg/mL, the “PDE1 inhibition (in words)” value [2] is given as “potent and selective” and the “DN AUC0-24” value [3] is given as 304.6 [ng · hr/mL]/[mg/kg]. For the same molecule, the “DN Cmax” value [3] was 41 [ng/mL]/[mg/kg], the Cmax [3] was 205 ng/mL and the Tmax [3] was 1.3 h. For the same molecule, the half-life [3] was 6.8 h and the AUC(0-t) [3] was 1520 ng·h/mL.

For CC(=O)c1ccc(Cn2nc3c(c2Nc2ccc(F)cc2)C(=O)N(C)C2=NC(C)(C)CN23)cc1.O=C(O)CCC(=O)O [Succinate Salt, 2-(4-acetylbenzyl)-3-((4-fluorophenyl)amino)-5,7,7-trimethyl-7,8-dihydro-2H-imidazo[1,2-a]pyrazolo[4,3-e]pyrimidin-4(5H)-one succinate], the solubility [1] was roughly 7000 µg/mL, the hygroscopicity [4] was “low hygroscopicity” and the “solubility (in words)” value [4] was “good solubility”. The stability [4] was “particularly stable”, the “DN AUC0-24” value [3] was 331.9 [ng · hr/mL]/[mg/kg] and the “DN Cmax” value [3] was 123.8 [ng/mL]/[mg/kg]. For the same molecule, the Cmax [3] was 619 ng/mL, the Tmax [3] was 0.4 h and the half-life [3] was 7 h. For the same molecule, the AUC(0-t) [3] was 1660 ng·h/mL.
